# Columns and labels:
# [1] = Bodyweight and health monitoring, PDX ST340 study; assay type: in vivo, female athymic nude mice; details: relative to day 0
# Procedure: (§1) Combination studies with palbociclib, fulvestrant and the KAT6 inhibitor, Compound E (KAT6i), were performed in two ER+ breast cancer PDX models: ST340 and ST941. ST340 was wildtype for ESR1. […] Both studies were conducted by XenoSTART (San Antonio, Texas), where 6-12 week-old female athymic nude mice (JAX, stock #007850) were subcutaneously implanted with ~70 mg tumor fragments. Animals were supplemented with exogenous estradiol ad libitum via drinking water throughout the duration of the studies. Tumor measurements and animal weights were captured twice per week, and animals were stratified and enrolled into the study when the mean tumor volume (TV, formula: width^2×length×0.5) reached 150-300 mm^3.
# (§2) Each study contained eight treatment groups of n=10 animals per group. The groups were as follows: 1) Vehicle (5% DMSO/40% PEG300/55% 1×PBS), 2) Compound E, 3) palbociclib, 4) fulvestrant, 5) palbociclib+fulvestrant, 6) Compound E +fulvestrant, 7) Compound E+palbociclib, and 8) Compound E+palbociclib+fulvestrant. Animals remained on study and were continued on treatments until the mean tumor volume of each group reached ~1500 mm^3. At that point, the final dose was administered, animals were sacrificed, and terminal samples were collected. Blood microsamples were collected from each group for pharmacokinetics (PK) analysis at 0, 3, and 7 hrs (n=3/timepoint) on day 14 of dosing and again on the terminal day of dosing.
# (§3) Analysis of covariance (ANCOVA) was used to determine statistical significance when comparing percent TGI between groups. Changes in bodyweights were calculated in relation to starting bodyweights at study initiation (day 0 of treatment).
# MCF7 cells = assay: Palbociclib growth arrest and recovery, cell counts; assay type: cell-based; details: MCF7, 500 nM palbociclib
# Procedure: T47D and MCF7 were confirmed as ER+ breast cancer cell lines using short tandem repeat (“STR”) testing (ATCC STR profiling service). […] After 6 and 14 days of palbociclib treatment, the cells in each well were suspended by trypsinization and cell densities were measured by cell counter. For the additional MCF7 cultures that were treated, in parallel, for either 6 or 14 days with 500 nM palbociclib, the palbociclib was washed off the cells and they were allowed 7-8 days to recover. After this recovery period, the cells were suspended by trypsinization and the cell densities of each suspension were measured. Similar to the T47D cells, palbociclib treatment stably arrested MCF7 cells for up to 14 days of treatment (FIG. 1B). However, after removing palbociclib from the MCF7 cultures treated for either 6 or 14 days, the cells readily re-entered the cell cycle and proliferated.
# T47D cells = assay: as above; assay type: cell-based; details: 500 nM palbociclib
# Procedure: T47D and MCF7 were confirmed as ER+ breast cancer cell lines using short tandem repeat (“STR”) testing (ATCC STR profiling service). […] After allowing 18-24 hours for the cells to attach to the plates, 500 nM palbociclib was added to each culture. Growth media and palbociclib was refreshed twice per week (every 3-4 days). […] For T47D cultures, the cells were suspended by trypsinization from triplicate cultures on days 1, 14, and 24 of palbociclib treatment and the cell density of each suspension was measured using a Vi-Cell XR cell counter. In a separate experiment, three additional T47D cultures were treated for 14 days with 500 nM palbociclib, then the palbociclib was washed off the cells and the cells were allowed to recover for 10 days. After 10 days of recovery, the cells were suspended by trypsinization and the cell density of each suspension was measured by cell counter.
# [2] = test system: ER+ breast cancer PDX model ST340; assay: PDX tumor growth inhibition study; assay type: in vivo, female athymic nude mice; details: doses per Table 7; for % TGI Delta: PDX ST340, day 21, compared to Vehicle
# Procedure: as §1, §2, §3
# CAMA1 cells = assay: Profiling of the response of CAMA1 to palbociclib; assay type: cell-based
# [3] = Bodyweight and health monitoring, PDX ST941 study; assay type: in vivo, female athymic nude mice; details: relative to day 0
# Procedure: as §1, §2, §3
# [4] = test system: ERα protein in T47D cells; assay: Western blot after palbociclib treatment; assay type: cell-based; details: 500 nM palbociclib, 8 days
# Procedure: (§4) Cells were seeded into 6-well culture plates and allowed to attach overnight at 37° C., 5% CO2. […] Medium was refreshed every 3 days. At 3, 6 and 8 days of treatment, cells were harvested for protein and RNA lysates.
# [5] = test system: ERα protein in MCF7 cells; assay: Western blot after palbociclib treatment; assay type: cell-based; details: MCF7, 500 nM palbociclib, 8 days
# Procedure: as §4
structure (smiles),measurement,setting,value
"CC(=O)c1c(C)c2cnc(Nc3ccc(N4CCNCC4)cn3)nc2n(C2CCCC2)c1=O [Palbociclib, 6-acetyl-8-cyclopentyl-5-methyl-2-(5-piperazin-1-yl-pyridin-2-ylamino)-8H-pyrido[2,3-d]pyrimidin-7-one]",Day 21 mean change in bodyweight,[1],−2%
same,Maximum mean bodyweight loss,[1],−3%
same,Effect on cell cycle,MCF7 cells,complete cell cycle arrest
same,Reversibility of growth arrest,MCF7 cells; after withdrawal,reversible upon palbociclib withdrawal
same,Effect on cell cycle,T47D cells,complete cell cycle arrest
same,Reversibility of growth arrest,T47D cells; after withdrawal,reversible upon palbociclib withdrawal
same,% TGI Delta,[2],43.7%
same,% TGI Delta,[2]; listed as palbociclib,~ 40%
same,Mean ± SEM (day 21),"[2]; PDX ST340, tumor volume (mm^3)",1051.4 ± 134
same,Effect of single agent treatment on proliferation,CAMA1 cells,irreversible proliferation arrest
same,Day 17 mean change in bodyweight,[3],−1%
same,Maximum mean bodyweight loss,[3],−3%
same,Reduction of ERα protein level,[4],about 50%
same,Reduction of ERα protein level,[5],about 50%

# Source: patent publication US20260240819A1, “KAT6 INHIBITOR METHODS AND COMBINATIONS FOR CANCER TREATMENT” (Pfizer Inc., priority 2020, published 2026)
